In patent US20260001853A1, “ASCORBIC ACID DERIVATIVE OR SALT THEREOF, AND COSMETIC THEREOF” (SEIWA KASEI COMPANY, LIMITED, priority 2022, published 2026):

Tests used:
[1] = Stability test (residual rate by HPLC, odor, coloring); format: physicochemical; details: 1% aqueous solution; for Coloring / Odor: total score of 10 panelists
Protocol: With a dilute potassium hydroxide aqueous solution, 1% aqueous solution of each test sample was adjusted to pH 6, placed in a 50 mL screw tube, sealed, […], and then subjected to HPLC measurement (using a liquid chromatograph manufactured by Shimadzu Corporation) to determine the residual rate from the peak area. The residual rate, odor, and coloring degree were evaluated according to the following methods and criteria.
Residual rate: • ⊚: 90% or more • ◯: 80% or more, less than 90% • Δ: 60% or more, less than 80% • x: 20% or more, less than 60% • xx: Less than 20%
Evaluation was made by 10 panelists according to the following criteria. • 3: Almost odorless • 2: There is a slight strange odor. • 1: A strong odor is detected.
Based on the evaluation results, the following classification was made: • ⊚: Total score of 10 panelists is 25 or more • ◯: Total score of 10 panelists is 20-24 • Δ: Total score of 10 panelists is 16-19 • x: The total score of 10 panelists is 15 or less
Evaluation was made by 10 panelists according to the following criteria. • 3: Almost no change compared to immediately after preparation. • 2: Color changes compared to immediately after preparation. • 1: Strongly colored compared to immediately after preparation.
Based on the evaluation results, the following classification was made: • ◯: Total score of 10 panelists is 25 or more • Δ: Total score of 10 panelists is 16-24 • x: The total score of 10 panelists is 15 or less

[2] = tested on: Normal human dermal fibroblasts; assay: Collagen production promoting effect (ELISA of supernatant); format: cell-based; details: amount of collagen produced, % with control group taken as 100%; sample at 10 mmol/L or less, 48 hours, N=3
Protocol: Normal human dermal fibroblasts were prepared in D-MEM containing 5% (v/v) fetal bovine serum to a cell density of […] cells/well, and pre incubated on a 96-well plate for 24 hours. After removing the medium, samples prepared to a predetermined concentration in D-MEM containing 5% (v/v) fetal bovine serum were added to each well and cultured for 48 hours. After completion of the culture, the amount of free collagen in the supernatant was quantified by ELISA method. The measurement was performed with N=3.
(§1) The amount of collagen produced when the samples were measured at a concentration of 10 mmol/L or less was compared with that of the control group, and the results (% values when the control group is taken as 100%) are shown in Tables 15 to 17 based on the following criteria. • <100%: ± • 100-120%: + • 120%: ++

B16 melanoma 4A5 cells = assay: Melanin production inhibitory effect (theophylline-induced melanin production); format: cell-based, mouse; details: melanin production inhibition rate, sample at a concentration of 10 mM or less, 3 days culture, theophylline 1 mmol/L, N=4
Protocol: As a test of the whitening effect, the effect on theophylline-induced melanin production in B16 melanoma 4A5 cells was evaluated for the ascorbic acid derivatives of the present invention according to the following procedure. A similar evaluation was also performed for a known ascorbic acid derivative for comparison. The results are shown in Tables 9 to 11. • (1) B16 mouse melanoma 4A5 cells were seeded in a 48-well plate at a cell density of 8.0×10^3 cells/well. • (2) After culturing for 24 hours in Dulbecco's modified Eagle's medium (manufactured by SIGMA, hereinafter abbreviated as “D-MEM”) containing 10% fetal bovine serum, the medium was replaced with D-MEM containing 10% fetal bovine serum containing theophylline (final concentration 1 mmol/L) and a specified concentration of a sample. • (3) After culturing for 3 days in the presence of the sample, the medium was removed using an aspirator, distilled water was added, and the cells were disrupted by ultrasonication. • (4) The amount of protein was then quantified using a BCA protein assay kit (manufactured by PIERCE), and the amount of melanin produced was measured by an alkali solubilization method. Sodium hydroxide was added to the cell lysate to a final concentration of 1 mol/L, and the solution was dissolved by heating (60° C., 30 minutes), thereafter the absorbance at 405 nm was measured using a microplate reader. The amount of melanin was calculated from a calibration curve prepared using synthetic melanin (SIGMA) as a standard. The amount of melanin per unit protein was calculated by dividing the amount of melanin by the amount of protein. • (5) The melanin production inhibition rate was calculated using the following formula.
[In the formula, A represents the amount of melanin per unit protein (g/g) when the sample was added, B represents the amount of melanin per unit protein (g/g) in the normal group, and C represents the amount of melanin per unit protein (g/g) in the control group.]
The melanin production inhibition rate when the sample was measured at a concentration of 10 mM or less is expressed as follows. The measurement was performed with N=4. • <20%: ± • 20-40%: + • 40-60%: ++ • 60-100%: +++

[3] = tested on: Normal human dermal fibroblasts (NHDF); assay: Hyaluronic acid production promoting effect (ELISA of supernatant); format: cell-based; details: amount of hyaluronic acid produced, % with control group taken as 100%; sample at 10 mmol/L or less, 48 hours, N=3
Protocol: Normal human dermal fibroblasts (NHDF) were prepared in D-MEM containing 5% (v/v) fetal bovine serum to a cell density of 2.5× 10^4 cells/well, and then pre-incubated on a 96-well plate for 24 hours. After removing the medium, samples prepared in serum-free D-MEM were added to each well and cultured for 48 hours. After the culture was completed, the amount of hyaluronic acid in the supernatant was quantified by ELISA method. The measurement was performed with N=3.
as §1, with “of hyaluronic acid” for “of collagen”, “Tables 18” for “Tables 15”, “to 20” for “to 17”, “• 120-150%:” for “• 120%:”, “++ • 150%: +++” for “++”

[4] = pH 6, stored at 50° C., two weeks later

| Structure (SMILES) | Collagen production promoting effect [2] | Melanin production inhibition effect (B16 melanoma 4A5 cells) | Hyaluronic acid production promoting effect [3] | further results |
| --- | --- | --- | --- | --- |
| O=C1O[C@H]([C@@H](O)CO)C(O)=C1O [Ascorbic acid] |  |  |  | Residual rate ([1]; pH 6, 50° C., initial): ⊚ (⊚: 90% or more); Coloring ([1]; pH 6, 50° C., initial): ◯ (◯: Total score of 10 panelists is 25 or more); Odor ([1]; pH 6, 50° C., initial): ◯ (◯: Total score of 10 panelists is 20-24); Residual rate [1, 4]: Δ (Δ: 60% or more, less than 80%); Coloring [1, 4]: Δ (Δ: Total score of 10 panelists is 16-24); Odor [1, 4]: Δ (Δ: Total score of 10 panelists is 16-19) |
| CCCCOC1=C(OCC(C)(C)O)C(=O)O[C@@H]1[C@@H](O)CO [Synthesis Example 4, 2-O-(2-hydroxyisobutyl)-3-O-butylascorbic acid] | ++ (120%: ++) |  |  |  |
| CCCCCCOC1=C(OCC(C)(C)O)C(=O)O[C@@H]1[C@@H](O)CO [Synthesis Example 5, 2-O-(2-hydroxyisobutyl)-3-O-hexyl ascorbic acid] | ++ (120%: ++) | + (20-40%: +) |  |  |
| CCCCCCCCOC1=C(OCC(C)(C)O)C(=O)O[C@@H]1[C@@H](O)CO [Synthesis Example 6, 2-O-(2-hydroxyisobutyl)-3-O-octyl ascorbic acid] | ++ (120%: ++) | +++ (60-100%: +++) |  |  |
| CCCCCCCCCCOC1=C(OCC(C)(C)O)C(=O)O[C@@H]1[C@@H](O)CO [Synthesis Example 7, 2-O-(2-hydroxyisobutyl)-3-O-decyl ascorbic acid] | ++ (120%: ++) | +++ (60-100%: +++) |  |  |
| CCCCCCCCCCCCCCOC1=C(OCC(C)(C)O)C(=O)O[C@@H]1[C@@H](O)CO [Synthesis Example 9, 2-O-(2-hydroxyisobutyl)-3-O-tetradecyl ascorbic acid] | ++ (120%: ++) | ++ (40-60%: ++) | +++ (150%: +++) |  |
| CCCCCCCCCCCCCCCCOC1=C(OCC(C)(C)O)C(=O)O[C@@H]1[C@@H](O)CO [Synthesis Example 10, 2-O-(2-hydroxyisobutyl)-3-O-hexadecylascorbic acid] |  | + (20-40%: +) |  |  |
| C=CCOC1=C(OCC(C)(C)O)C(=O)O[C@@H]1[C@@H](O)CO [Synthesis Example 11, 2-O-(2-hydroxyisobutyl)-3-O-allylascorbic acid] | ++ (120%: ++) | +++ (60-100%: +++) | ++ (120-150%: ++) |  |
| CC(C)(O)COC1=C(OCc2ccccc2)[C@@H]([C@@H](O)CO)OC1=O [Synthesis Example 12, 2-O-(2-hydroxyisobutyl)-3-O-benzyl ascorbic acid] | ++ (120%: ++) | +++ (60-100%: +++) | +++ (150%: +++) |  |
| CC(C)(O)COC1=C(OCC(O)CO)[C@@H]([C@@H](O)CO)OC1=O (stereo partly shown) [Synthesis Example 13, 2-O-(2-hydroxyisobutyl)-3-O-glyceryl ascorbic acid] | ++ (120%: ++) | ++ (40-60%: ++) | ++ (120-150%: ++) |  |
| CCCCC(CC)COCC(O)COC1=C(OCC(C)(C)O)C(=O)OC1C(O)CO (stereo not shown) [Synthesis Example 15, 2-O-(2-hydroxyisobutyl)-3-O-(2-hydroxy-3-O-ethylhexyl) ascorbic acid] | ++ (120%: ++) | + (20-40%: +) |  |  |
| CCCCCCCCCCCCOCC(O)COC1=C(OCC(C)(C)O)C(=O)OC1C(O)CO (stereo not shown) [Synthesis Example 16, 2-O-(2-hydroxyisobutyl)-3-O-(2-hydroxy-3-O-dodecyl) ascorbic acid] |  | + (20-40%: +) | ++ (120-150%: ++) |  |
| CCCCOC1=C(OCC(C)(C)O)[C@@H]([C@@H](O)CO)OC1=O [Synthesis Example 19, 2-O-butyl-3-O-(2-hydroxyisobutyl) ascorbic acid] | ++ (120%: ++) | + (20-40%: +) |  |  |
| CCCCCCOC1=C(OCC(C)(C)O)[C@@H]([C@@H](O)CO)OC1=O [Synthesis Example 20, 2-O-hexyl-3-O-(2-hydroxyisobutyl) ascorbic acid] | ++ (120%: ++) | ++ (40-60%: ++) |  |  |
| CCCCCCCCOC1=C(OCC(C)(C)O)[C@@H]([C@@H](O)CO)OC1=O [Synthesis Example 21, 2-O-octyl-3-O-(2-hydroxyisobutyl) ascorbic acid] | ++ (120%: ++) | ++ (40-60%: ++) | +++ (150%: +++) |  |
| CCCCCCCCCCOC1=C(OCC(C)(C)O)[C@@H]([C@@H](O)CO)OC1=O [Synthesis Example 22, 2-O-decyl-3-O-(2-hydroxyisobutyl) ascorbic acid] |  | ++ (40-60%: ++) |  |  |
| CCCCCCCCCCCCOC1=C(OCC(C)(C)O)[C@@H]([C@@H](O)CO)OC1=O [Synthesis Example 23, 2-O-dodecyl-3-O-(2-hydroxyisobutyl) ascorbic acid] | ++ (120%: ++) | +++ (60-100%: +++) | ++ (120-150%: ++) |  |
| CC(C)(O)COC1=C(OCC(O)CO)C(=O)O[C@@H]1[C@@H](O)CO (stereo partly shown) [Synthesis Example 28, 2-O-glyceryl-3-O-(2-hydroxyisobutyl) ascorbic acid] |  | + (20-40%: +) | ++ (120-150%: ++) |  |
| CCCCOCC(O)COC1=C(OCC(C)(C)O)C(C(O)CO)OC1=O (stereo not shown) [Synthesis Example 29, 2-O-(2-hydroxy-3-O-butyl)-3-O-(2-hydroxyisobutyl) ascorbic acid] | ++ (120%: ++) |  |  |  |
| CCCCC(CC)COCC(O)COC1=C(OCC(C)(C)O)C(C(O)CO)OC1=O (stereo not shown) [Synthesis Example 30, 2-O-(2-hydroxy-3-O-ethylhexyl)-3-O-(2-hydroxyisobutyl) ascorbic acid] |  | + (20-40%: +) | +++ (150%: +++) |  |
